According to patent publication US20180369244A1, “BTK Inhibitors to Treat Solid Tumors Through Modulation of the Tumor Microenvironment” (Acerta Pharma B.V., priority 2014, published 2018):

Columns and labels:
[1] = test system: human platelet-mediated thrombosis; settings: mouse, in vivo
Description: Injury to the vessel wall of arterioles ([…] diameter) was performed using a pulsed nitrogen dye laser (440 nm, Photonic Instruments) applied through a 20× water-immersion Olympus objective (LUMPlanF1, 0.5 numerical aperature (NA)) of a Zeiss Axiotech vario microscope. […] The extent of thrombus formation was assessed for 2 minutes after injury and the area (μm^2) of coverage determined (Image IQ, Andor Technology).
The BTK inhibitor-treated human platelets were fluorescently labeled and infused continuously through a catheter inserted into the femoral artery.

[2] = test system: KPC derived mouse pancreatic cancer cells; test: KPC derived pancreatic cancer cells injected into pancreas, Formula (II) and/or gemcitabine; format: in vivo; settings: Formula (II) 15 mg/kg/BID oral; gemcitabine 15 mg/kg IV every 4 days for 3 injections
Description: In this study, KPC derived mouse pancreatic cancer cells (KrasGl2D;Trp53R^172H;Pdx1-Cre) were injected into the pancreases.
Single cell suspensions from tumor samples. Mouse tumor tissue was collected and stored in PBS/0.1% soybean trypsin inhibitor prior to enzymatic dissociation. Samples were finely minced with a scissors and mouse tissue was transferred into DMEM containing 1.0 mg/ml collagenase IV (Gibco), 0.1% soybean trypsin inhibitor, and 50 U/ml DNase (Roche) and incubated at 37 C for 30 min. with constant stirring while human tissue was digested in 2.0 mg/ml collagenase IV, 1.0 mg/ml hyluronidase, 0.1% soybean trypsin inhibitor, and 50 U/ml DNase for 45 minutes. Suspensions were filtered through a 100 micron filter and washed with FACS buffer (PBS/0.5% BSA/2.0 mM EDTA) prior to staining. Two million total cells were stained with antibodies as indicated. Intracellular detection of FoxP3 was achieved following permeabilization with BD Perm Buffer III (BD Biosciences) and eBioscience Fix/Perm respectively. Following surface staining, samples were acquired on a BD Fortessa and analyzed using FlowJo (Treestar) software.

NK cells = test: Antibody-dependent NK cell IFN-γ secretion (ELISA); format: cell-based, human; settings: 1 μM
Description: The HER18 cells were maintained in DEM supplemented with fetal bovine serum, penicillin-streptomycin and. Prior to assay, HER18 cells were harvested using trypsin-EDTA, washed with phosphate-buffered saline (PBS) containing 5% serum and viable cells were counted. […] NK cells from CLL patients and healthy volunteers were enriched from peripheral blood collected in sodium citrate anti-coagulant tubes and then subject to density centrifugation. Removal of non NK cells was performed using negative selection by MACS separation. Freshly isolated NK cells were washed three times, enumerated, and then used immediately for ADCC assays.
Cytokine secretion was determined as follows. Rituximab and trastuzumab-dependent NK-cell mediated degranulation and cytokine release were assessed using lymphoma and HER2+ breast cancer cell lines (DHL-4 and HER18, respectively). […] NK cells from healthy donors were enriched as described above and then added to the target cells and incubated for 4 hours at 37° C. Triplicate cultures were performed on NK cells from donors. After incubation, supernatants were harvested, centrifuged briefly, and then analyzed for interferon-γ using an enzyme-linked immunosorbent assay (ELISA).

primary CLL cells = test: Rituximab ADCC chromium release assay; format: cell-based, human; settings: 1 μM; primary CLL samples
Description: Cell culture conditions were as follows. Cell lines Raji and DHL-4 were maintained in […] supplemented with fetal bovine serum, L-glutamine, 2-mercaptoethanol and penicillin-streptomycin at 37° C. in a humidified incubator. The HER18 cells were maintained in DEM supplemented with fetal bovine serum, penicillin-streptomycin and. Prior to assay, HER18 cells were harvested using trypsin-EDTA, washed with phosphate-buffered saline (PBS) containing 5% serum and viable cells were counted. For culture of primary target cells, peripheral blood from CLL patients was subject to density centrifugation to obtain peripheral blood mononuclear cells (PBMC). Cell preparations were washed and then subject to positive selection of CD5+CD19^+ CLL cells using magnetic beads (MACS, Miltenyi Biotech). Cell preparations were used fresh after selection. NK cells from CLL patients and healthy volunteers were enriched from peripheral blood collected in sodium citrate anti-coagulant tubes and then subject to density centrifugation. Removal of non NK cells was performed using negative selection by MACS separation. […]
ADCC assays were performed as follows. […] The effect of NK cell natural cytotoxicity was assessed in wells containing no rituximab. […] Supernatants were harvested and ^51Cr release was measured by liquid scintillation counting. […]

[3] = GLP safety pharmacology in rats (functional observation battery, respiratory function); format: in vivo; settings: doses through 300 mg/kg
Description: (§1) Formula (II) was well tolerated in standard in vivo Good Laboratory Practices (GLP) studies of pharmacologic safety.

[4] = Cardiovascular function study in telemeterized beagle dogs; format: in vivo; settings: single doses through 30 mg/kg
Description: as §1

CYP3A4 = CYP3A4 (Homo sapiens, UniProt P08684); test: Loss of parent drug as catalyzed by CYPs; format: in vitro ADME
CYP3A4, sequence (P08684 whole entry): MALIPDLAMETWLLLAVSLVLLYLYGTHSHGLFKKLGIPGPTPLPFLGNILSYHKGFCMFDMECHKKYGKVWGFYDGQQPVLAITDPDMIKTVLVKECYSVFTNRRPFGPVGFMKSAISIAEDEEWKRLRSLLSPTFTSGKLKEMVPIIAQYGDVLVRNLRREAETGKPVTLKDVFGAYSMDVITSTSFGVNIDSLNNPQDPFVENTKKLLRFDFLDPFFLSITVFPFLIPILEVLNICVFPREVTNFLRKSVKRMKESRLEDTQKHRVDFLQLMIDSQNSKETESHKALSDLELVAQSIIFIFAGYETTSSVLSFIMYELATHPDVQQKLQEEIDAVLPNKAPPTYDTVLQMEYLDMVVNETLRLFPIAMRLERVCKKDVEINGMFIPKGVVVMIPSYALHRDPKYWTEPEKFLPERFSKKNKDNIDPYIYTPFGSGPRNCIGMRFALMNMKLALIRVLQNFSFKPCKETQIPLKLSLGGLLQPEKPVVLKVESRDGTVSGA
Description: No unique human metabolite was identified. Preliminary evaluations of metabolism in the plasma, bile, and urine of rats, dogs, and monkeys indicated metabolic processes of oxidation, glutathione binding, and hydrolysis.

CD4+ T cells = test: Th17 and Treg development from CD4+ T cells; format: cell-based
Description: Enriched CD4^+ T cells are plated on 24-well culture dishes that have been precoated 2 hr with 250 μL anti-TCRβ (0.5 μg/mL) plus anti-CD28 (5 μg/mL) at 37° C. in PBS. The cells are then supplemented with media containing BTK inhibitors along with the skewing cytokines as indicated in the following. The Th17 and Treg cultures are grown for 4 days before analysis. The cells are maintained for an additional 3 days with skewing cytokines (Th17; 20 ng/mL IL-6, 0.5 ng/mL TGF-β, 5 μg/mL IL-4, 5 μg/mL IFN-γ and Treg; 0.5 ng/mL TGF-β, 5 μg/mL IL-4, 5 μg/mL IFN-γ) and are supplemented with IL2 as a growth factor.

CD8+ T cells = test: Cytotoxic T cell (CTL) assay; format: cell-based; settings: 500 nM
Description: CD8^+ T cells have at least two primary effector functions: (1) produce large amounts of IFN-γ (which activates macrophages), and (2) cytolytic activity. […] The targets were B lymphoblasts from lipopolysaccharide (LPS) treated cultures. The assay was performed by incubating different ratios of effectors:targets for 4 hours.

CC#CC(=O)N1CCC[C@H]1c1nc(-c2ccc(C(=O)Nc3ccccn3)cc2)c2c(N)nccn12 [Formula (II), (S)-4-(8-amino-3-(1-(but-2-ynoyl)pyrrolidin-2-yl)imidazo[1,5-a]pyrazin-1-yl)-N-(pyridin-2-yl)benzamide]
effect on thrombus formation [1]: does not interfere with thrombus formation
reduction in tumor size [2]: show efficacy alone
IFN-γ or NK cell degranulation (NK cells): did not inhibit
inhibition of trastuzumab-stimulated NK cell cytokine release (NK cells; HER18 target cells): no inhibitory effect
ex vivo NK cell activity against autologous tumor cells (primary CLL cells): not inhibited
functional observation battery: neurobehavioral effects, body temperature [3]: no adverse effects
respiratory function [3]: no treatment-related adverse effects
body temperature, cardiovascular, ECG (including QT interval) parameters [4]: no meaningful changes
CYP metabolism (CYP3A4): metabolized by CYP3A4
Th17 and Treg development (CD4+ T cells): no adverse effects on Th17 and Treg development
CD8+ T cell function as % cytotoxicity (CD8+ T cells): no effect on CD8^+ T cell function
